Assay results taken from PubChem BioAssay AID1259407 (Chemical Carcinogenesis Research Information System (CCRIS), 2018).
Calls of active or inactive are those of the source. No rule for the calls is given here.

Test system: CCRIS mutagenicity, Ames/micronucleus/aberration tests
Experiment: CCRIS mutagenicity studies
Conditions: Method: PREINCUBATION
[1] = Test System: AMES SALMONELLA TYPHIMURIUM, Strain/Indicator: TA98, Metabolic Activation: NONE
[2] = Test System: AMES SALMONELLA TYPHIMURIUM, Strain/Indicator: TA100, Metabolic Activation: NONE
[3] = Test System: AMES SALMONELLA TYPHIMURIUM, Strain/Indicator: TA1535, Metabolic Activation: NONE
[4] = Test System: AMES SALMONELLA TYPHIMURIUM, Strain/Indicator: TA1537, Metabolic Activation: NONE

`CCOCCCl` was tested, and the mutagenic call [1] was “inactive; negative”, the mutagenic call (Test System: AMES SALMONELLA TYPHIMURIUM, Strain/Indicator: TA98, Metabolic Activation: RAT, LIVER, S-9, PHENOBARBITAL AND BETA-NAPHTHOFLAVONE) was “inactive; negative” and the mutagenic call [2] was “inactive; negative”. The mutagenic call (Test System: AMES SALMONELLA TYPHIMURIUM, Strain/Indicator: TA100, Metabolic Activation: RAT, LIVER, S-9, PHENOBARBITAL AND BETA-NAPHTHOFLAVONE) was “inactive; negative”, the mutagenic call (Test System: AMES SALMONELLA TYPHIMURIUM, Strain/Indicator: TA102, Metabolic Activation: NONE) was “inactive; negative” and the mutagenic call (Test System: AMES SALMONELLA TYPHIMURIUM, Strain/Indicator: TA102, Metabolic Activation: RAT, LIVER, S-9, PHENOBARBITAL AND BETA-NAPHTHOFLAVONE) was “inactive; negative”. The mutagenic call (Test System: AMES SALMONELLA TYPHIMURIUM, Strain/Indicator: TA104, Metabolic Activation: NONE) was “active; positive”, the mutagenic call (Test System: AMES SALMONELLA TYPHIMURIUM, Strain/Indicator: TA104, Metabolic Activation: RAT, LIVER, S-9, PHENOBARBITAL AND BETA-NAPHTHOFLAVONE) was “inactive; negative” and the mutagenic call [3] was “inactive; negative”. For the same compound, the mutagenic call (Test System: AMES SALMONELLA TYPHIMURIUM, Strain/Indicator: TA1535, Metabolic Activation: RAT, LIVER, S-9, PHENOBARBITAL AND BETA-NAPHTHOFLAVONE) was “inactive; negative”, the mutagenic call [4] was “inactive; negative” and the mutagenic call (Test System: AMES SALMONELLA TYPHIMURIUM, Strain/Indicator: TA1537, Metabolic Activation: RAT, LIVER, S-9, PHENOBARBITAL AND BETA-NAPHTHOFLAVONE) was “inactive; negative”. For the same compound, the mutagenic call (Test System: E. COLI, Strain/Indicator: WP2UVRA/PKM101, Metabolic Activation: NONE) was “inactive; negative”, the mutagenic call (Test System: E. COLI, Strain/Indicator: WP2UVRA/PKM101, Metabolic Activation: RAT, LIVER, S-9, PHENOBARBITAL AND BETA-NAPHTHOFLAVONE) was “inactive; negative” and the mutagenic call (Test System: E. COLI, Strain/Indicator: WP2UVRA, Metabolic Activation: NONE) was “inactive; negative”. For the same compound, the mutagenic call (Test System: E. COLI, Strain/Indicator: WP2UVRA, Metabolic Activation: RAT, LIVER, S-9, PHENOBARBITAL AND BETA-NAPHTHOFLAVONE) was “inactive; negative”.

With `COCCOCCOC` the mutagenic call (Test System: AMES SALMONELLA TYPHIMURIUM, Strain/Indicator: TA98, Metabolic Activation: HAMSTER, LIVER, S-9, AROCLOR 1254 (10%)) was “inactive; negative”, the mutagenic call [1] was “inactive; negative” and the mutagenic call (Test System: AMES SALMONELLA TYPHIMURIUM, Strain/Indicator: TA98, Metabolic Activation: RAT, LIVER, S-9, AROCLOR 1254 (10%)) was “inactive; negative”. For the same compound, the mutagenic call (Test System: AMES SALMONELLA TYPHIMURIUM, Strain/Indicator: TA100, Metabolic Activation: HAMSTER, LIVER, S-9, AROCLOR 1254 (10%)) was “inactive; negative”, the mutagenic call [2] was “inactive; negative” and the mutagenic call (Test System: AMES SALMONELLA TYPHIMURIUM, Strain/Indicator: TA100, Metabolic Activation: RAT, LIVER, S-9, AROCLOR 1254 (10%)) was “inactive; negative”. The mutagenic call (Test System: AMES SALMONELLA TYPHIMURIUM, Strain/Indicator: TA1535, Metabolic Activation: HAMSTER, LIVER, S-9, AROCLOR 1254 (10%)) was “inactive; negative”, the mutagenic call [3] was “inactive; negative” and the mutagenic call (Test System: AMES SALMONELLA TYPHIMURIUM, Strain/Indicator: TA1535, Metabolic Activation: RAT, LIVER, S-9, AROCLOR 1254 (10%)) was “inactive; negative”. For the same compound, the mutagenic call (Test System: AMES SALMONELLA TYPHIMURIUM, Strain/Indicator: TA1537, Metabolic Activation: HAMSTER, LIVER, S-9, AROCLOR 1254 (10%)) was “inactive; negative”, the mutagenic call [4] was “inactive; negative” and the mutagenic call (Test System: AMES SALMONELLA TYPHIMURIUM, Strain/Indicator: TA1537, Metabolic Activation: RAT, LIVER, S-9, AROCLOR 1254 (10%)) was “inactive; negative”.
